Test results taken from US20220089578A1, “COMPOUNDS AS GLP-1R AGONISTS” (Terns Pharmaceuticals, Inc., priority 2020, published 2022).
pEC50: −log10 of the molar value.

Molecular target: human GLP-1R (Homo sapiens, UniProt P43220)
Test: GLP-1R Cell Assay 1: cAMP Hunter CHO-K1 GLP1R Gs cell line, HitHunter cAMP assay
Type: cell-based
Conditions: Table 2; cAMP Hunter CHO-K1 GLP1R Gs cells; percent activity normalized to Exendin-4
Method: GLP-1R mediated agonist activity was determined using the cAMP Hunter CHO-K1 GLP1R Gs cell line (DiscoverX, cat# 95-0062C2), a stable CHO-K1 derived cell lines overexpressing naturally Gs coupled wild-type human GLP-1R (accession number: NM_002062.3). GLP-1R agonism in this cell line was detected by measuring cellular cAMP levels using the HitHunter cAMP assay kit (cat# 90-0075SM2), a homogenous, gain-of-signal competitive immune assay based on Enzyme Fragment Complementation (EFC) technology. In this system cellular cAMP competes with exogenous labeled cAMP (ED-cAMP) for binding to an anti-cAMP antibody. […] The luminescent signal is directly proportional to the amount of cellular cAMP.
For compound testing, cells were seeded in a total volume of 20 μL in white walled, 384-well microplates and incubated at 37° C. prior to compound testing. Prior to compound addition, cell culture media was removed by aspiration and replaced with 15 pt reagent buffer (2:1 HBSS/10 mM HEPES: cAMP XS+Ab reagent). Compounds were dissolved in DSMO and serially diluted (3-fold) prior to final dilution to 4X in assay buffer. Samples (5 μL) were added to cells and incubated at 37° C. for […] prior to 1 hour incubation with 20 pt cAMP XS+ED/CL lysis reagent and 3 hour incubation with 20 μL cAMP XS+EA reagent at room temperature. Microplates were read on a PerkinElmer Envision instrument. Compound activity was analyzed using CBIS data analysis suite (ChemInnovation). Percent activity was calculated based on duplicate assay runs and normalized to the positive control Exendin-4, a GLP-1R peptide agonist, using the following formula: […]
The effective compound concentration resulting in 50% response (EC50) was determined by non-linear regression analysis of dose-response curves.

human GLP-1R, sequence (P43220 24-463): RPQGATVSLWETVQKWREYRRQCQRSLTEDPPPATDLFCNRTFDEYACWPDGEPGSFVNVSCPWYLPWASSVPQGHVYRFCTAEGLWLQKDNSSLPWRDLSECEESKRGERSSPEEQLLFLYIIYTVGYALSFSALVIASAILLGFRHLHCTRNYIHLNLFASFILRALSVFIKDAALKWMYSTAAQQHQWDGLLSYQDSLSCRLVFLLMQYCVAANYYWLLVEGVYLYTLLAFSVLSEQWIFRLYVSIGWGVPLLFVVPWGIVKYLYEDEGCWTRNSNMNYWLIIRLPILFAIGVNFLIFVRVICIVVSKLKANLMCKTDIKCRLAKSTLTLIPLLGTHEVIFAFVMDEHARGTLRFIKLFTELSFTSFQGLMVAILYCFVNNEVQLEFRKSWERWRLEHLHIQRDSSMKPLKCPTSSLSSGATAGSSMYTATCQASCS

With `O=C(O)c1ccc2nc(CN3CCN(c4cccc(OCCC5COC5)n4)CC3)n(C[C@@H]3CCO3)c2c1` [Compound 35, (S)-1-(oxetan-2-ylmethyl)-2-((4-(6-(2-(oxetan-3-yl)ethoxy)pyridin-2-yl)piperazin-1-yl)methyl)-1H-benzo[d]imidazole-6-carboxylic acid] the pEC50 was < 6.30.
Work on `O=C(O)c1ccc2nc(CN3CCN(c4cccc(OCC5CCC(F)(F)CC5)n4)CC3)n(C[C@@H]3CCO3)c2c1` [Compound 36, (S)-2-((4-(6-((4,4-difluorocyclohexyl)methoxy)pyridin-2-yl)piperazin-1-yl)methyl)-1-(oxetan-2-ylmethyl)-1H-benzo[d]imidazole-6-carboxylic acid] yielded a pEC50 of 7.44.
For `CN1CCC(COc2cccc(N3CCN(Cc4nc5ccc(C(=O)O)cc5n4C[C@@H]4CCO4)CC3)n2)CC1` [Compound 37, (S)-2-((4-(6-((1-methylpiperidin-4-yl)methoxy)pyridin-2-yl)piperazin-1-yl)methyl)-1-(oxetan-2-ylmethyl)-1H-benzo[d]imidazole-6-carboxylic acid], the pEC50 was < 6.30.
With `CC(=O)N1CCC(COc2cccc(N3CCN(Cc4nc5ccc(C(=O)O)cc5n4C[C@@H]4CCO4)CC3)n2)CC1` [Compound 38, (S)-2-((4-(6-((1-acetylpiperidin-4-yl)methoxy)pyridin-2-yl)piperazin-1-yl)methyl)-1-(oxetan-2-ylmethyl)-1H-benzo[d]imidazole-6-carboxylic acid] the pEC50 was < 6.30.
Molecule `O=C(O)c1ccc2nc(CN3CCN(c4cccc(OC5CN(c6ccccc6)C5)n4)CC3)n(C[C@@H]3CCO3)c2c1` [Compound 39, (S)-1-(oxetan-2-ylmethyl)-2-((4-(6-((1-phenylazetidin-3-yl)oxy)pyridin-2-yl)piperazin-1-yl)methyl)-1H-benzo[d]imidazole-6-carboxylic acid] has a pEC50 of 6.38.
`O=C(O)c1ccc2nc(CN3CCN(c4cccc(OCc5ccccn5)n4)CC3)n(C[C@@H]3CCO3)c2c1` [Compound 40, (S)-1-(oxetan-2-ylmethyl)-2-((4-(6-(pyridin-2-ylmethoxy)pyridin-2-yl)piperazin-1-yl)methyl)-1H-benzo[d]imidazole-6-carboxylic acid] gave a pEC50 of 8.48.
With `N#CC1(COc2cccc(N3CCN(Cc4nc5ccc(C(=O)O)cc5n4C[C@@H]4CCO4)CC3)n2)CCOCC1` [Compound 41, (S)-2-((4-(6-((4-cyanotetrahydro-2H-pyran-4-yl)methoxy)pyridin-2-yl)piperazin-1-yl)methyl)-1-(oxetan-2-ylmethyl)-1H-benzo[d]imidazole-6-carboxylic acid] the pEC50 was < 6.30.
For `O=C(O)c1ccc2nc(CN3CCN(c4cccc(OCc5ccncc5)n4)CC3)n(C[C@@H]3CCO3)c2c1` [Compound 42, (S)-1-(oxetan-2-ylmethyl)-2-((4-(6-(pyridin-4-ylmethoxy)pyridin-2-yl)piperazin-1-yl)methyl)-1H-benzo[d]imidazole-6-carboxylic acid], the pEC50 was 8.42.
`O=C(O)c1ccc2nc(CN3CCN(c4cccc(OCC5CC6(COC6)C5)n4)CC3)n(C[C@@H]3CCO3)c2c1` [Compound 43, (S)-2-((4-(6-((2-oxaspiro[3.3]heptan-6-yl)methoxy)pyridin-2-yl)piperazin-1-yl)methyl)-1-(oxetan-2-ylmethyl)-1H-benzo[d]imidazole-6-carboxylic acid] was tested, and the pEC50 was < 6.30.
In the case of `O=C(O)c1ccc2nc(CN3CCN(c4cccc(OCCC5CCCCC5)n4)CC3)n(C[C@@H]3CCO3)c2c1` [Compound 44, (S)-2-((4-(6-(2-cyclohexylethoxy)pyridin-2-yl)piperazin-1-yl)methyl)-1-(oxetan-2-ylmethyl)-1H-benzo[d]imidazole-6-carboxylic acid], the pEC50 was 7.09.
`O=C(O)c1ccc2nc(CN3CCN(c4cccc(OC5(c6ccccc6)COC5)n4)CC3)n(C[C@@H]3CCO3)c2c1` [Compound 45, (S)-1-(oxetan-2-ylmethyl)-2-((4-(6-((3-phenyloxetan-3-yl)oxy)pyridin-2-yl)piperazin-1-yl)methyl)-1H-benzo[d]imidazole-6-carboxylic acid] was tested, and the pEC50 was 7.66.
`O=C(O)c1ccc2nc(CN3CCN(c4cccc(OCC5CCC6(CC5)COC6)n4)CC3)n(C[C@@H]3CCO3)c2c1` [Compound 46, (S)-2-((4-(6-((2-oxaspiro[3.5]nonan-7-yl)methoxy)pyridin-2-yl)piperazin-1-yl)methyl)-1-(oxetan-2-ylmethyl)-1H-benzo[d]imidazole-6-carboxylic acid] was tested, and the pEC50 was < 6.30.
In the case of `O=C(O)c1ccc2nc(CN3CCN(c4cccc(OCC5COC5)n4)CC3)n(C[C@@H]3CCO3)c2c1` [Compound 47, (S)-1-(oxetan-2-ylmethyl)-2-((4-(6-(oxetan-3-ylmethoxy)pyridin-2-yl)piperazin-1-yl)methyl)-1H-benzo[d]imidazole-6-carboxylic acid], the pEC50 was < 6.30.
In the case of `O=C(O)c1ccc2nc(CN3CCN(c4cccc(OCC5CC6(CCOCC6)C5)n4)CC3)n(C[C@@H]3CCO3)c2c1` [Compound 48, (S)-2-((4-(6-((7-oxaspiro[3.5]nonan-2-yl)methoxy)pyridin-2-yl)piperazin-1-yl)methyl)-1-(oxetan-2-ylmethyl)-1H-benzo[d]imidazole-6-carboxylic acid], the pEC50 was < 6.30.
With `O=C(O)c1ccc2nc(CN3CCN(c4cccc(OC5CCC6(CCC6)CC5)n4)CC3)n(C[C@@H]3CCO3)c2c1` [Compound 49, (S)-1-(oxetan-2-ylmethyl)-2-((4-(6-(spiro[3.5]nonan-7-yloxy)pyridin-2-yl)piperazin-1-yl)methyl)-1H-benzo[d]imidazole-6-carboxylic acid] the pEC50 was < 6.30.
`O=C(O)c1ccc2nc(CN3CCN(c4cccc(OCC5CC(F)(F)C5)n4)CC3)n(C[C@@H]3CCO3)c2c1` [Compound 50, (S)-2-((4-(6-((3,3-difluorocyclobutyl)methoxy)pyridin-2-yl)piperazin-1-yl)methyl)-1-(oxetan-2-ylmethyl)-1H-benzo[d]imidazole-6-carboxylic acid] gave a pEC50 of 6.69.
In the case of `O=C(O)c1ccc2nc(CN3CCN(c4cccc(OC5(c6ccccc6)CCC5)n4)CC3)n(C[C@@H]3CCO3)c2c1` [Compound 51, (S)-1-(oxetan-2-ylmethyl)-2-((4-(6-(1-phenylcyclobutoxy)pyridin-2-yl)piperazin-1-yl)methyl)-1H-benzo[d]imidazole-6-carboxylic acid], the pEC50 was 6.46.
In the case of `CS(=O)(=O)N1CCC(COc2cccc(N3CCN(Cc4nc5ccc(C(=O)O)cc5n4C[C@@H]4CCO4)CC3)n2)CC1` [Compound 52, (S)-2-((4-(6-((1-(methylsulfonyl)piperidin-4-yl)methoxy)pyridin-2-yl)piperazin-1-yl)methyl)-1-(oxetan-2-ylmethyl)-1H-benzo[d]imidazole-6-carboxylic acid], the pEC50 was < 6.30.
With `O=C(O)c1ccc2nc(CN3CCN(c4cccc(OCc5cccnc5)n4)CC3)n(C[C@@H]3CCO3)c2c1` [Compound 53, (S)-1-(oxetan-2-ylmethyl)-2-((4-(6-(pyridin-3-ylmethoxy)pyridin-2-yl)piperazin-1-yl)methyl)-1H-benzo[d]imidazole-6-carboxylic acid] the pEC50 was 8.11.
With `O=C(O)c1ccc2nc(CN3CCN(c4cccc(OCC5CCS(=O)(=O)CC5)n4)CC3)n(C[C@@H]3CCO3)c2c1` [Compound 54, (S)-2-((4-(6-((1,1-dioxidotetrahydro-2H-thiopyran-4-yl)methoxy)pyridin-2-yl)piperazin-1-yl)methyl)-1-(oxetan-2-ylmethyl)-1H-benzo[d]imidazole-6-carboxylic acid] the pEC50 was < 6.30.
`O=C(O)c1ccc2nc(CN3CCN(c4cccc(NCc5ccccc5)n4)CC3)n(C[C@@H]3CCO3)c2c1` [Compound 55, (S)-2-((4-(6-(benzylamino)pyridin-2-yl)piperazin-1-yl)methyl)-1-(oxetan-2-ylmethyl)-1H-benzo[d]imidazole-6-carboxylic acid] showed a pEC50 of 7.37.
`CS(=O)(=O)N1CC(COc2cccc(N3CCN(Cc4nc5ccc(C(=O)O)cc5n4C[C@@H]4CCO4)CC3)n2)C1` [Compound 56, (S)-2-((4-(6-((1-(methylsulfonyl)azetidin-3-yl)methoxy)pyridin-2-yl)piperazin-1-yl)methyl)-1-(oxetan-2-ylmethyl)-1H-benzo[d]imidazole-6-carboxylic acid] was tested, and the pEC50 was < 6.30.
For `N#Cc1ccc2c(c1)CN(c1cccc(N3CCN(Cc4nc5ccc(C(=O)O)cc5n4C[C@@H]4CCO4)CC3)n1)C2` [Compound 57, (S)-2-((4-(6-(5-cyanoisoindolin-2-yl)pyridin-2-yl)piperazin-1-yl)methyl)-1-(oxetan-2-ylmethyl)-1H-benzo[d]imidazole-6-carboxylic acid], the pEC50 was < 6.30.
Molecule `O=C(O)c1ccc2nc(CN3CCN(c4cccc(OCc5ccc(Cl)cn5)n4)CC3)n(C[C@@H]3CCO3)c2c1` [Compound 58, (S)-2-((4-(6-((5-chloropyridin-2-yl)methoxy)pyridin-2-yl)piperazin-1-yl)methyl)-1-(oxetan-2-ylmethyl)-1H-benzo[d]imidazole-6-carboxylic acid] has a pEC50 of 9.66.
